# Reference: publication PMC10452181, “Synthesis and Biological Evaluation of Cyclobutane-Based β3 Integrin Antagonists: A Novel Approach to Targeting Integrins for Cancer Therapy” (Cancers, 2023)
# Read-outs that look alike come from different tables or passages of the source.
# Columns and labels:
# [1] = test system: M14; experiment: Cytotoxicity by MTT assay, 96 h, M14; assay type: cell-based, human; conditions: MTT, 96 hours
# Protocol: (§1) Before use in cell-based assays of integrin function, the effect of compounds on cell proliferation was tested using the MTT assay to avoid adhesion results being confounded by cell death (Supplementary Table S1). The effect of compounds on cell adhesion was then initially tested at a single, nontoxic concentration to identify active antagonists for further characterisation; those displaying a promising activity in the adhesion assay were tested at a wider range of concentrations to determine the IC50 (Table 2). […] Nevertheless, it is a cost-effective initial screening method. page 4: Table S1. Cytotoxicity of compounds on the cell lines used in the functional assays (measured by MTT assay). Cells (2000 cells/well for Sk-Mel-2; 1 x 10^4 cells/mL for M14) were incubated for 96 hours at 37 ° C in a total volume of 200 μL/well (180 μL medium + 20 μ L test compound solution). After 96 hours, the medium was replaced by fresh medium containing 0.5 mg/ml (end conc.) MTT per well, incubated for 4 h then the plate processed and read as described in the main text. […] ICT9053 41 naphthyridine 1 NHSO2Mes H Ester 52.6 ± 0.6 72.7 ± 9.8 ICT9065 42 naphthyridine 1 H H Ester >100 - ICT9079 43 naphthyridine 0 NHSO2Mes H Ester ~100 - ICT9061 44 naphthyridineT 1 NHSO2Mes H Ester 46.8 ± 10.7 - […] Ester 65.4 ± 11.1 >100 […] Ester 9.6 ± 5.7 >100 […] Ester >100 - […] Ester 54.6 ± 11.0 - […] Ester >5 3.3 ± 0.8 […] ICT9028 51 pyrimidine 2 NHSO2Ph H Acid >100 - ICT9031 52 pyrimidineT 1 NHSO2Mes H Acid >100 - ICT9090 53 pyrimidineT 2 NHSO2Mes H Acid >50 - ICT9029 54 pyrimidineT 2 NHSO2Ph H Acid >100 - ICT9063 55 naphthyridine 1 NHSO2Mes H Acid 61.7 ± 2.8 - […] Acid 45.5 ± 7.9 >100 […] 42.5 ± 1.8 >50 RGDS >50 - T trans configuration of cyclobutane sidechains.
# [2] = test system: Sk-Mel-2; experiment: in vitro; assay type: cell-based, human
# Protocol: as §1
# [3] = test system: M14 cells; experiment: cells; assay type: cell-based, human; conditions: M14 scratch wound, 24 h, mean ± SD; read-out: Migration IC50
# Protocol: M14 cells (4 × 10^5/mL in RPMI 1640 medium) were seeded in six-well plates and incubated at 37 °C in a 5% CO2 humidified atmosphere for 48 h. The resulting confluent monolayer was scratched with a sterile P200 pipette tip to create a gap (approximately 2 cm in length and 650 μm in width) in the centre of the well. The medium was removed, and the cells washed with Hank’s balanced salt solution (HBSS) (1 mL) and replaced with a medium containing the test antagonist. After 24 h, the cells were washed twice with HBSS and fixed with ice-pre-cooled methanol for thirty minutes at −20 °C. Following hydration with two washes in PBS, the monolayers were counterstained with Harris’s haematoxylin solution for two minutes, then washed in tap water for one minute and left to dry at room temperature. The plates were observed using an inverted microscope, and digital images captured.
# The anti-αvβ3 activity of selected compounds was confirmed in a wound-healing assay (Figure 3). A number of cell lines were initially investigated for their suitability in this assay. The Sk-Mel-2 cell line which adhered well to fibronectin in the adhesion assay migrated very slowly; therefore, M14 melanoma cells which combined high levels of αvβ3 with rapid migration and low levels of proliferation over the assay period (Supplementary Figure S4) were selected.
# [4] = molecular target: T1, αvβ3 (Homo sapiens, UniProt P05106+P06756); experiment: Sk-Mel-2 cell adhesion to immobilised fibronectin (cell-binding assay, MTT readout); assay type: cell-based; conditions: Sk-Mel-2 adhesion to Fn, mean ± SD
# T1 construct: endogenous in cells; host or cells: SK-Mel-2 melanoma cells
# Protocol: First, 96-well plates (Corning, VWR) were coated overnight at 4 °C with 0.5 μg/well fibronectin (Sigma). SK-Mel-2 cells were trypsinised, washed and resuspended in RPMI medium only at 10^5 cells/mL. Cells (100 µL/well) were treated with compound (DMSO final concentration 0.1%) at the indicated concentration for 4 hrs on a rotary shaker. Plates were washed (3 × PBS) and blocked with PBS/5% BSA for 2 hrs at 37 °C prior to adding the cells. Cells were incubated on the plates at 37 °C in a humidified chamber with 5% CO2 for 1 hr. The plates were washed 3× with PBS and a 200 µL/well RPMI medium containing 10% FCS added. The plates were incubated overnight at 37 °C as above. Finally, 0.5 mg/mL of 3-(4,5-dimethythiazol-2-yl)-2,5-diphenyl tetrazolium bromide (MTT) was added to each well and the plates incubated for a further 4 h. The medium was removed, and the insoluble formazan dissolved in 150 µL of DMSO. Absorbance was measured at 540 nm using a Thermo Multiskan EX (Thermofisher, UK)and Ascent Software (v2.6). Total binding was determined based on controls lacking any compounds (100% binding) in fibronectin-coated wells and uncoated wells blocked with BSA (0% binding) and corrected for background (no cells, fibronectin-coated).
# As an initial test of anti-β3 activity, the ability of compounds to inhibit the adhesion of melanoma cells expressing high levels of αvβ3 and low levels of other RGD-binding integrins such as αvβ5 and α5β1 to immobilised fibronectin was evaluated.
# Cells were seeded onto precoated plates in the presence or absence of putative antagonists and the number of adherent cells quantified colorimetrically.
# [5] = molecular target: T2, αIIbβ3 (Homo sapiens, UniProt P05106+P08514); experiment: αIIbβ3/fibrinogen purified protein binding ELISA; conditions: for IC50: read-out: IC50 (αIIbβ3/Fg)
# T2 construct: purchased Sigma
# Protocol: ELISA assays were performed as previously described with minor modifications. Briefly, serial dilutions of compounds were prepared in dimethyl sulfoxide (DMSO). C8 Maxi Immuno modules (Fisher Scientific) were incubated overnight at 4 °C with 0.5 μg/well of fibrinogen (Sigma) in sterile phosphate buffered saline (PBS, 0.2 g/L KCl, 8.0 g/L NaCl, 0.2 KH2PO4, 1.15 g/L Na2HPO4, pH 7.4). All subsequent wash steps were performed using 25 mM Tris, pH 7.6, 150 mM NaCl, 1 mM MnCl2, 1 mg/mL BSA, and binding/inhibition was carried out in 25 mM Tris, pH 7.6, 150 mM NaCl, 1 mM MnCl2, 1 mM MgCl2, 1 mM CaCl2, 1 mg/mL BSA.
# Wells were washed and blocked with a blocking solution (PBS, 0.1% Tween 20, 3% BSA) for 1 h at 37 °C. Compounds were added to the wells at indicated concentrations (final 0.5% DMSO) in the presence of 0.5 µg/well αIIbβ3 (Sigma) and incubated at room temp for 1 h. After 3 washes, primary anti-αIIb (1:200 dilution, Santa Cruz Biotech, Heidelberg, Germany) and antigoat–HRP (1:500 dilution, Dako, Agilent, Santa Clara, CA, USA) were added at room temp for 1 h. The wells were washed and incubated with 0.1 mg/mL tetra-methylbenzidine (Sigma) for 25 min and the reaction was stopped with 1N H2SO4 (100 μL/well). The absorbance was measured at 450 nm using a Multiscan Spectrum reader (Thermo Scientific, Thermofisher, UK) and SkanIT RE (v2.4.4.5) software. Results were plotted as percent binding vs. log concentration and IC50 values determined.
# [6] = test system: platelet aggregation; experiment: ADP-induced platelet aggregation in hirudin-treated whole blood (ex vivo); assay type: cell-based, human; conditions: for % Inhibition (Platelet Aggregation) @ 100 μM: ADP 6.4 μM
# Protocol: 2.7. Platelet Aggregation Assay
# Platelet aggregation was measured in hirudin-anticoagulated whole blood from a healthy donor with ADP as agonist (end concentration 6.4 μM) using a Multiplate® impedance aggregometer (Dynabyte Informationssysteme GmbH, Munich, Germany). At 37 °C, cells were charged with 300 μL of saline, 300 μL of blood, 1 μL of compound (0.1% DMSO) and incubated for 3 min. The agonist was added and the increase in electrical impedance measured from 2 electrode pairs/cell for 6 min, transformed into arbitrary units (AU), and the area under the curve was calculated.
# T2 sequence (P08514 32-887 limits assumed): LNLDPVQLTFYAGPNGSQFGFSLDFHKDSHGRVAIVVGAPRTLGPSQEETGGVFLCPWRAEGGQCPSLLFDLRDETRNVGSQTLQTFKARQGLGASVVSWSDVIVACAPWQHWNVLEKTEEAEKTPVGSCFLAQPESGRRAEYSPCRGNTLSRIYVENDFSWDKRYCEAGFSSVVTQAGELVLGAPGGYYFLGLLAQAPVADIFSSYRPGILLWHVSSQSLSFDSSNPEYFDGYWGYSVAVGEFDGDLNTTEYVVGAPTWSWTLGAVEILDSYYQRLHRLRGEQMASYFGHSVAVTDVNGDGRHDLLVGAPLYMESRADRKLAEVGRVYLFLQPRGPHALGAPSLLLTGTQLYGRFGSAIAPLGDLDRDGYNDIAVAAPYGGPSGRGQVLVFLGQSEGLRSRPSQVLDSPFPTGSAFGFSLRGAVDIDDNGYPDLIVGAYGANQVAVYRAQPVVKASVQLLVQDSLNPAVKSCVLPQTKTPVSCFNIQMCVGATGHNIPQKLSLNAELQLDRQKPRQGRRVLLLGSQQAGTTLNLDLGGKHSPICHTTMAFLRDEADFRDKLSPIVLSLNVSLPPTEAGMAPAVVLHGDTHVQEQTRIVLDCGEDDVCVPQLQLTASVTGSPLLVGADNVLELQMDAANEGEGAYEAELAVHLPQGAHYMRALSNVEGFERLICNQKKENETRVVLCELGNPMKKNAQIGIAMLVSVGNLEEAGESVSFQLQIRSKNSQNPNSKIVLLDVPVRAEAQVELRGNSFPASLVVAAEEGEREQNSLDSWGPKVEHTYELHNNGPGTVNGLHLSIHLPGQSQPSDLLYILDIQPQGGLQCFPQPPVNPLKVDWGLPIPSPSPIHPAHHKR
# T2 sequence (P08514 891-1039 partner limits assumed): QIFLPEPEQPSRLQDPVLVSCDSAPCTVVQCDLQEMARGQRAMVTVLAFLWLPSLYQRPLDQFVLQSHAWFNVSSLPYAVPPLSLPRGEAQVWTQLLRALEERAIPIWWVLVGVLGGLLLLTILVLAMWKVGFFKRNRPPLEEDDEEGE
# T2 sequence (P05106 27-788): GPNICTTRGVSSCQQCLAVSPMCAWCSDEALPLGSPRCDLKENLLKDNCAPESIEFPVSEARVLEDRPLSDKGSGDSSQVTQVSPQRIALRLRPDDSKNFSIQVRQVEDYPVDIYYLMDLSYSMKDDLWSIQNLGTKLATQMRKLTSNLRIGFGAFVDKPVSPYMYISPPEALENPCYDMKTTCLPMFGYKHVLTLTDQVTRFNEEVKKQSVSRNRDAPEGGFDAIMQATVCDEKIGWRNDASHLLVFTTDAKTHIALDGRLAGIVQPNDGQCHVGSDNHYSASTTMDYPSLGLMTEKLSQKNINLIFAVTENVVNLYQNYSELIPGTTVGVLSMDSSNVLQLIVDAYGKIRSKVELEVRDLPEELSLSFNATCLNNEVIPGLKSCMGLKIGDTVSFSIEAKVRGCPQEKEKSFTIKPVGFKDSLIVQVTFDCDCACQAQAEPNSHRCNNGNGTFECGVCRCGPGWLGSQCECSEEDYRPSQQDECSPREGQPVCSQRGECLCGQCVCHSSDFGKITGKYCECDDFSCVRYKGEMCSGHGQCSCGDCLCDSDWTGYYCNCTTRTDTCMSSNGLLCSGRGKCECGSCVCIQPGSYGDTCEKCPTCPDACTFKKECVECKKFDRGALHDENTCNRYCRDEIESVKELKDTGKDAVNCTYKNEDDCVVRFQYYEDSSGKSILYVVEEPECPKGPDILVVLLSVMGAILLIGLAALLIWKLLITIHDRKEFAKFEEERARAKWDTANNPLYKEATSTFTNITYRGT
# T1 sequence (P06756 31-889 limits assumed): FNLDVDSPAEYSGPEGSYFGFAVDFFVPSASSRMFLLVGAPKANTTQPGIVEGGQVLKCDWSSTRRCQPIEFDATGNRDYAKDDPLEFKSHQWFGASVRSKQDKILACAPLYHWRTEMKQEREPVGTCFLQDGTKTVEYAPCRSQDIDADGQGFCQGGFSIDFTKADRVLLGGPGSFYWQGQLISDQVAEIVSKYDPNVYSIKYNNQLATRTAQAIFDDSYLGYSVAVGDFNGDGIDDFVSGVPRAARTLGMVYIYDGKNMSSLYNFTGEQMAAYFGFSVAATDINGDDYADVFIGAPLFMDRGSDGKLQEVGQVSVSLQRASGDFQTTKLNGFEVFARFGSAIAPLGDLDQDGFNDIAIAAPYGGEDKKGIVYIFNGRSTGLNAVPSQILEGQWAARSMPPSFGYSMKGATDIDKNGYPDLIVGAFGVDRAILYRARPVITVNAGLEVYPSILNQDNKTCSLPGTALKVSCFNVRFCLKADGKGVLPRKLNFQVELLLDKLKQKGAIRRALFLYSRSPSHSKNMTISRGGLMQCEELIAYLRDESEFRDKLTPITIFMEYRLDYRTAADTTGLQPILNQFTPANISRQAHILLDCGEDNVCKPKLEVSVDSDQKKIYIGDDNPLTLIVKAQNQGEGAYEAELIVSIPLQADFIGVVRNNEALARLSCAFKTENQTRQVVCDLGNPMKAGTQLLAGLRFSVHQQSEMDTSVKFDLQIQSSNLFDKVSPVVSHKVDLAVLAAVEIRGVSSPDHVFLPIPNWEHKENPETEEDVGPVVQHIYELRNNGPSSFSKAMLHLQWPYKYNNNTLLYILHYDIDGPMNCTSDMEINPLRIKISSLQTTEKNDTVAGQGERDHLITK
# T1 sequence (P06756 891-1048 partner limits assumed): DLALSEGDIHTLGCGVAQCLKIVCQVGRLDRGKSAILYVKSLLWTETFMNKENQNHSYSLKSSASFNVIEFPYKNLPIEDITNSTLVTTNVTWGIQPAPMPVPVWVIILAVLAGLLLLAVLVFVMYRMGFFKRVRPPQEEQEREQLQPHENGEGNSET
# T1 sequence (P05106 27-788): as the sequence (P05106 27-788) above
IC50 [2] [µM],IC50 [3] [µM],Adhesion % Inhibition @ 5 μM [4] [%],% Inhibition (αIIbβ3/Fg) @ 50 μM ([5]; mean ± SD) [%],IC50 ([5]; mean ± SD) [µM],IC50 [4] [µM],IC50 ([5]; positive control) [µM],IC50 ([6]; ADP-induced) [µM],Adhesion % Inhibition @ 50 μM [4] [%],SMILES,IC50 [1] [µM],% Inhibition (Platelet Aggregation) @ 100 μM [6] [%]
65.4 ± 11.1,1 ± 0.09,59.5 ± 24.0,,,,,,,"COC(=O)[C@H](CNC(=O)C1CC(CCc2ccc3c(n2)NCCC3)C1)NS(=O)(=O)c1ccccc1 (stereo partly drawn) [ICT9057 45, (S)-methyl 2-(phenylsulfonamido)-3-((1r,3r)-3-(2-(5,6,7,8-tetrahydro-1,8-naphthyridin-2-yl)ethyl)cyclobutanecarboxamido)propanoate]",> 100,
61.7 ± 2.8,,20.7 ± 11.9,84.5 ± 8.6,4.1 ± 2.2,> 5,,,,"Cc1cc(C)c(S(=O)(=O)N[C@@H](CNC(=O)C2CC(CCc3ccc4cccnc4n3)C2)C(=O)O)c(C)c1 (stereo partly drawn) [ICT9063 55, (S)-3-{(1r,3r)-[3-(2-[1, 8] Naphthyridin-2-yl-ethyl)-cyclobutanecarbonyl]-amino}-2-(2,4,6-trimethyl-benzenesulfonylamino)-propionic acid]",,13.0
72 ± 6.5,> 10,20.9 ± 27.5,,,,,,,"COC(=O)[C@H](CNC(=O)[C@H]1C[C@H](CCCCNc2ncccn2)C1)NS(=O)(=O)c1c(C)cc(C)cc1C [ICT9018 26, (S)-methyl 3-((1r,3r)-3-(4-(pyrimidin-2-ylamino)butyl)cyclobutanecarboxamido)-2-(2,4,6-trimethylphenylsulfonamido)propanoate]",> 100,
,,,,,,0.0237 ± 0.0031,0.24,,"Cl.Cl.Cl.N=C(N)c1ccc(N2CCN(C3CCN(CC(=O)O)CC3)CC2)cc1 [GR144053, reference compound]",,100
53.8 ± 3.2,9.5 ± 0.9,35.2 ± 19.1,15.6 ± 14.5,,50 ± 5,,,48.3 ± 4.1,"COC(=O)[C@H](CNC(=O)C1CC(CCNc2ncccn2)C1)NS(=O)(=O)c1c(C)cc(C)cc1C (stereo partly drawn) [ICT9019 21, (S)-Methyl 3-((1s,3r)-3-(2-(pyrimidin-2-ylamino)ethyl)cyclobutanecarboxamido)-2-(2,4,6-trimethylphenylsulfonamido)propanoate]",> 100,
52.6 ± 0.6,> 10,27.5 ± 32.9,29.4 ± 17.6,> 100,> 5,,,,"COC(=O)[C@H](CNC(=O)[C@H]1C[C@H](CCc2ccc3cccnc3n2)C1)NS(=O)(=O)c1c(C)cc(C)cc1C [ICT9053 41, (S)-methyl 3-((1r,3r)-3-(2-(1,8-naphthyridin-2-yl)ethyl)cyclobutanecarboxamido)-2-(2,4,6-trimethylphenylsulfonamido)propanoate]",72.7 ± 9.8,
> 50,,,,0.39 ± 0.19,11 ± 11.6,,,68.9 ± 10.9,"Cc1cc(C)c(S(=O)(=O)N[C@@H](CNC(=O)[C@H]2C[C@@H](CCCNc3ncccn3)C2)C(=O)O)c(C)c1 [ICT9090 53, (S)-3-((1s,3s)-{3-[3-(Pyrimidin-2-ylamino)-propyl]-cyclobutanecarbonyl}-amino)-2-(2,4,6-trimethyl-benzenesulfonylamino)-propionic acid]",,21.2 ± 7.8
> 100,,,96.2 ± 6.3,1.7 ± 2.4,> 50,,,11.1 ± 2.4,"Cc1cc(C)c(S(=O)(=O)N[C@@H](CNC(=O)C2CC(CCNc3ncccn3)C2)C(=O)O)c(C)c1 (stereo partly drawn) [ICT9031 52, (S)-3-((1r,3s)-3-(2-(pyrimidin-2-ylamino)ethyl)cyclobutanecarboxamido)-2-(2,4,6-trimethylphenylsulfonamido)propanoic acid]",,11.1
57.8 ± 1.9,> 10,19.1 ± 14.2,,,,,,,COC(=O)[C@H](CNC(=O)[C@H]1C[C@H](CCCNc2ncccn2)C1)NS(=O)(=O)c1c(C)cc(C)cc1C [ICT9020 24],36 ± 18.6,
> 5,0.15 ± 0.03,72.3 ± 9.4,,,,,,,"COC(=O)[C@H](CNC(=O)[C@H]1C[C@@H](CCc2ccc3c(n2)NCCC3)C1)NS(=O)(=O)c1c(C)cc(C)cc1C [ICT9062 49, (S)-methyl 3-((1s,3s)-3-(2-(5,6,7,8-tetrahydro-1,8-naphthyridin-2-yl)ethyl)cyclobutanecarboxamido)-2-(2,4,6-trimethylphenylsulfonamido)propanoate]",3.3 ± 0.8,
